{"source": "paper doi:10.1101/2024.08.21.608984v2", "about": "(biorxiv, 2025)", "key": {"GluN1/GluN2B NMDAR": {"target": "GluN1/GluN2B NMDAR (Homo sapiens, UniProt Q05586+Q13224, Q05586:Y647S)", "sequence (Q13224 27-1484, other chains not shown)": "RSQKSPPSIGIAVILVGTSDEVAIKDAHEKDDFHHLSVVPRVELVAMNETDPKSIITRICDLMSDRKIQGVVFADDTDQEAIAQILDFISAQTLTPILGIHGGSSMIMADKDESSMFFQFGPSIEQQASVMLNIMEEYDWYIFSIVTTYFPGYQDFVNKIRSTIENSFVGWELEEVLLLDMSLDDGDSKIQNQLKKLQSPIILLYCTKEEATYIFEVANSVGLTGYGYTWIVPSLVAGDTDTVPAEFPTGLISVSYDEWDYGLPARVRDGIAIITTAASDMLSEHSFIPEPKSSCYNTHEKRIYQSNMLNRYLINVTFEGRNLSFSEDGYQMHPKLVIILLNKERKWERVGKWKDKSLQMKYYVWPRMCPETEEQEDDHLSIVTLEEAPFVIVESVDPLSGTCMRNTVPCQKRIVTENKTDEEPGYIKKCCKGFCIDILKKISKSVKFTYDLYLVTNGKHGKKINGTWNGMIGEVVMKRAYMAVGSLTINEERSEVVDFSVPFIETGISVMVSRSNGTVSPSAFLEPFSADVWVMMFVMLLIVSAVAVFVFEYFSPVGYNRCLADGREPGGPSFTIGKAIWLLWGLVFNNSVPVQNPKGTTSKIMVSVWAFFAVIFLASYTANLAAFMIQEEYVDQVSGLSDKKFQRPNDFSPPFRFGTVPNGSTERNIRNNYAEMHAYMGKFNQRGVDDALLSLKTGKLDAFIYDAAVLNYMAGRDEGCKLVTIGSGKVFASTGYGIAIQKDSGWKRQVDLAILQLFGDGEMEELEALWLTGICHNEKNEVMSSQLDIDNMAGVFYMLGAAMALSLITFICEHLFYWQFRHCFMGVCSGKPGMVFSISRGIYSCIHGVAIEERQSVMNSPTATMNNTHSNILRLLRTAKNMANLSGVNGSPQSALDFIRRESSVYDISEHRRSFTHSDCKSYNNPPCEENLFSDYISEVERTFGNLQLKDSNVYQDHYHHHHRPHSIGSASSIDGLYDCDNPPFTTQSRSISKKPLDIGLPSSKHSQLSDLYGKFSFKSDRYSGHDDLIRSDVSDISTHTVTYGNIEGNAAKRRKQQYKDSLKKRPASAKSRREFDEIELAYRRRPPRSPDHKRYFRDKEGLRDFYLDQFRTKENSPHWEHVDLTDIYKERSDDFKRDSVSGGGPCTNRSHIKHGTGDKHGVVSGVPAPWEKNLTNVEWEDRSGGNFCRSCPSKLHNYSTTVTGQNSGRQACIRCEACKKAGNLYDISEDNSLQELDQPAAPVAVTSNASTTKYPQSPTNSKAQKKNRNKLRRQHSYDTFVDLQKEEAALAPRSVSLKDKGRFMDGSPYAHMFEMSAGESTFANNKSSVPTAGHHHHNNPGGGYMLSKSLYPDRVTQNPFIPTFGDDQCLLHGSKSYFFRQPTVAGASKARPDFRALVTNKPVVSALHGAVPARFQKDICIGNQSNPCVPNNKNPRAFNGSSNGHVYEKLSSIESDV", "test": "two-electrode voltage clamp, Xenopus oocytes", "format": "cell-based"}, "GluN1/GluN2A NMDAR": {"target": "GluN1/GluN2A NMDAR (Homo sapiens, UniProt Q05586+Q12879, Q05586:Y647S)", "sequence (Q12879 23-1464, other chains not shown)": "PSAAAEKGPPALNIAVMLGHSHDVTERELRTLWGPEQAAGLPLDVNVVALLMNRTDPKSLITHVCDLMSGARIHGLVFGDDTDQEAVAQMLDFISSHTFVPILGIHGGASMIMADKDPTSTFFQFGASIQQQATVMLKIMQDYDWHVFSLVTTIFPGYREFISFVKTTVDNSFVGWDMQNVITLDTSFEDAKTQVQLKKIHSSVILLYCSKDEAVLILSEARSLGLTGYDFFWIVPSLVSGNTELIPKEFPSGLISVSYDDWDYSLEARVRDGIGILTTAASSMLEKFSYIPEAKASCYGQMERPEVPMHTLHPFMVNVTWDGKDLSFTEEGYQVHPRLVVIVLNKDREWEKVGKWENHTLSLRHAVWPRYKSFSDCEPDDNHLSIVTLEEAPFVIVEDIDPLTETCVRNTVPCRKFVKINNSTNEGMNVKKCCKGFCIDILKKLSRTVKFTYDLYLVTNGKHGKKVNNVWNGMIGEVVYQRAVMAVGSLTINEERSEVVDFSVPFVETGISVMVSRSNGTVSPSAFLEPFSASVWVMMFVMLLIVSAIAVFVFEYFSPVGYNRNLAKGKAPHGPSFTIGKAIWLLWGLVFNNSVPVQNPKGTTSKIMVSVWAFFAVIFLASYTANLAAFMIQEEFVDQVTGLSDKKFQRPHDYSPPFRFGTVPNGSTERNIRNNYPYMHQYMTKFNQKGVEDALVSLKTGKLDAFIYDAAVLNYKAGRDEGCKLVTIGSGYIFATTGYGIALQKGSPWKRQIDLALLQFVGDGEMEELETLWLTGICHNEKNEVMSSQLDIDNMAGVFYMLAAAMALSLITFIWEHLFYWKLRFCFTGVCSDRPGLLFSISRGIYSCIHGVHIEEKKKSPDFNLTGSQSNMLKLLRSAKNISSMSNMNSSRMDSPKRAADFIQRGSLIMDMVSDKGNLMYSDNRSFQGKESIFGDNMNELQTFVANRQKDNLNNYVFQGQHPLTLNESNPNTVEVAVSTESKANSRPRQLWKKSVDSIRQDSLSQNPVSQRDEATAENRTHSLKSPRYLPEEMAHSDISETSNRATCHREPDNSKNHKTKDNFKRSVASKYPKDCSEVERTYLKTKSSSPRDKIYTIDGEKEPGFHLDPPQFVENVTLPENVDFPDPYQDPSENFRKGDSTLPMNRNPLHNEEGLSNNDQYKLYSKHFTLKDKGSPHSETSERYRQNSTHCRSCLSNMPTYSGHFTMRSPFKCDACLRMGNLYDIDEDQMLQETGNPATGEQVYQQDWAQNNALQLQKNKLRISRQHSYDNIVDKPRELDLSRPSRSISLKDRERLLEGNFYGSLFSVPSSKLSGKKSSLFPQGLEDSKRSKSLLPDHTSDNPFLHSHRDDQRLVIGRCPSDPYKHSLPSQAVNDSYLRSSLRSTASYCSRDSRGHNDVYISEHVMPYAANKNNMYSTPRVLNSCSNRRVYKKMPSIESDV", "test": "two-electrode voltage clamp, Xenopus oocytes", "format": "cell-based"}}, "note": "pEC50: −log10 of the molar value."}
{"compound": "NCC(=O)O", "note": "[glycine]", "values": [{"measurement": "pEC50", "setting": "GluN1/GluN2B NMDAR", "value": 7.77}, {"measurement": "pEC50", "setting": "GluN1/GluN2A NMDAR", "value": 7.44}]}
